Source: US20250042879A1, “HETEROCYCLIC SUBSTITUTED 1,3,4-THIADIAZOLE AND PYRIDAZINE COMPOUNDS AND METHODS OF USING THE SAME” (Rgenta Therapeutics, Inc., priority 2021, published 2025)
Where a name gives a salt, the structure may show the parent alone.

test system: HTT; experiment: Mini-gene reporter assay-HTT (firefly luciferase, exon inclusion); type: cell-based; conditions: HTT Minigene, 5 μM; read-out: % Efficacy at 5 μM
Text: Mini-gene reporter constructs for each target site were constructed by first PCR amplifying the region-of-interest including the sequence of the alternatively skipped, sequences of the immediate upstream and downstream introns, and sequences of the immediate upstream and downstream exons. Then the 3′end of the amplified sequence was ligated to a firefly luciferase reporter gene and cloned into the pcDNA3.1 vector backbone. The final reporter construct was transiently transfected into HEK293 cells using Lipofectamine 3000 transfection reagents. Compounds that can induce the inclusion of the skipped exon in the reporter construct would increase the reporter firefly luciferase activity.
Test compounds were diluted in duplicates and dispensed into an assay plate. Transient mini-gene reporter cell line stock was resuspended and dispensed into the assay plate. Assay plates were then centrifuged and incubated. A luciferase reagent (e.g. ONE-Glo firefly luciferase reagent from Promega®) was added to the assay plate and the luminescence (RLU) signals recorded. EC50 values were determined by curve fitting in Levenberg-Marquardt algorithm.

| SMILES | Emax at 5 µM [%] |
| --- | --- |
| Cc1cn2cc(-c3ccc(-c4ccc(C5CN(CC6CCSCC6)C5)nn4)c(O)c3)cc(F)c2n1 [Compound 109] | > 750 |
| COc1cc(-c2ccc(-c3ccc(C4CN(CC5CCSCC5)C4)nn3)c(O)c2)cc2cn(C)nc12 [Compound 167] | 25 to 75 |
| COCC(C)CN1CC(c2ccc(-c3ccc(-c4cc(F)c5nc(C)cn5c4)cc3O)nn2)C1 (centres unmarked) [Compound 104] | 25 to 75 |
| Cc1cn2cc(-c3ccc(-c4ccc(C5CN(Cc6cnco6)C5)nn4)c(O)c3)cc(F)c2n1 [Compound 90] | 25 to 75 |
| COc1cc(-c2ccc(-c3ccc(C4CN(C(C)Cc5cnccn5)C4)nn3)c(O)c2)cc2cn(C)nc12 (centres unmarked) [Compound 173] | 25 to 75 |
| CCn1cc(CN2CC(c3ccc(-c4ccc(-c5cc(F)c6nc(C)cn6c5)cc4O)nn3)C2)nn1 [Compound 123] | 25 to 75 |
| COc1cc(-c2ccc(-c3ccc(C4CN(Cc5cnc(C)o5)C4)nn3)c(O)c2)cc2cn(C)nc12 [Compound 162] | 25 to 75 |
| COc1cc(-c2ccc(-c3ccc(C4CN(Cc5cccnc5)C4)nn3)c(O)c2)cc2cn(C)nc12 [Compound 130] | 25 to 75 |
| COCC(C)N1CC(c2ccc(-c3ccc(-c4cc(F)c5nc(C)cn5c4)cc3O)nn2)C1 (centres unmarked) [Compound 84] | > 750 |
| COc1cc(-c2ccc(-c3ccc(C4CN(Cc5cc6n(n5)CCC6)C4)nn3)c(O)c2)cc2cn(C)nc12 [Compound 184] | 25 to 75 |
| COc1cc(-c2ccc(-c3ccc(C4CN(Cc5cncs5)C4)nn3)c(O)c2)cc2cn(C)nc12 [Compound 141] | 25 to 75 |
| Cc1cn2cc(-c3ccc(-c4ccc(C5CN(C6CCOCC6C)C5)nn4)c(O)c3)cc(F)c2n1 (centres unmarked) [Compound 85] | > 750 |
| COc1cc(-c2ccc(-c3ccc(C4CN(Cc5cc(C6CC6)[nH]n5)C4)nn3)c(O)c2)cc2cn(C)nc12 [Compound 161] | 25 to 75 |
| COc1cc(-c2ccc(-c3ccc(C4CN(C(C)c5ccccn5)C4)nn3)c(O)c2)cc2cn(C)nc12 (centres unmarked) [Compound 138] | 25 to 75 |
| COc1cc(-c2ccc(-c3ccc(C4CN(C5CCC(C)C5)C4)nn3)c(O)c2)cc2cn(C)nc12 (centres unmarked) [Compound 135] | 25 to 75 |
| Cc1cn2cc(-c3ccc(-c4ccc(C5CN(C6COCCOC6)C5)nn4)c(O)c3)cc(F)c2n1 [Compound 97] | 25 to 75 |
| COc1cc(-c2ccc(-c3ccc(C4CN(C5CCOC(C)(C)C5)C4)nn3)c(O)c2)cc2cn(C)nc12 (centres unmarked) [Compound 146] | 25 to 75 |
| Cc1cn2cc(-c3ccc(-c4ccc(C5CN(C6CCSC6)C5)nn4)c(O)c3)cc(F)c2n1 (centres unmarked) [Compound 70] | 25 to 75 |
| Cc1cn2cc(-c3ccc(-c4ccc(C5CN(Cc6cncnc6)C5)nn4)c(O)c3)cc(F)c2n1 [Compound 82] | 25 to 75 |
| COc1cc(-c2ccc(-c3ccc(C4CN(C(C)C5CCOCC5)C4)nn3)c(O)c2)cc2cn(C)nc12 (centres unmarked) [Compound 156] | > 750 |
| Cc1cn2cc(-c3ccc(-c4ccc(C5CN(Cc6cn(C)nc6C)C5)nn4)c(O)c3)cc(F)c2n1 [Compound 81] | 25 to 75 |
| COCCC(C)N1CC(c2ccc(-c3ccc(-c4cc(F)c5nc(C)cn5c4)cc3O)nn2)C1 (centres unmarked) [Compound 76] | > 750 |

| SMILES | Emax at 5 µM [%] |
| --- | --- |
| COc1cc(-c2ccc(-c3ccc(C4CN(C5CCN(C6CC6)CC5)C4)nn3)c(O)c2)cc2cn(C)nc12 [Compound 134] | < 25 |
| COc1cc(-c2ccc(-c3ccc(C4CN(C5CCC(OC)CC5)C4)nn3)c(O)c2)cc2cn(C)nc12 (centres unmarked) [Compound 144] | > 750 |
| CCn1ccc(CN2CC(c3ccc(-c4ccc(-c5cc(OC)c6nn(C)cc6c5)cc4O)nn3)C2)c1 [Compound 152] | < 25 |
| Cc1cn2cc(-c3ccc(-c4ccc(C5CN(CC6CCSC6)C5)nn4)c(O)c3)cc(F)c2n1 (centres unmarked) [Compound 111] | > 750 |
| CCCC(CN1CC(c2ccc(-c3ccc(-c4cc(OC)c5nn(C)cc5c4)cc3O)nn2)C1)OC (centres unmarked) [Compound 176] | 25 to 75 |
| COc1cc(-c2ccc(-c3ccc(C4CN(Cc5c(C)nn(C)c5C)C4)nn3)c(O)c2)cc2cn(C)nc12 [Compound 133] | < 25 |
| CCn1cc(CN2CC(c3ccc(-c4ccc(-c5cc(F)c6nc(C)cn6c5)cc4O)nn3)C2)cn1 [Compound 77] | > 750 |
| COc1cc(-c2ccc(-c3ccc(C4CN(C5CCCSCC5)C4)nn3)c(O)c2)cc2cn(C)nc12 (centres unmarked) [Compound 183] | > 750 |
| Cc1cn2cc(-c3ccc(-c4ccc(C5CN(Cc6c[nH]nc6C)C5)nn4)c(O)c3)cc(F)c2n1 [Compound 73] | > 750 |
| COCC1CCC(N2CC(c3ccc(-c4ccc(-c5cc(OC)c6nn(C)cc6c5)cc4O)nn3)C2)CC1 (centres unmarked) [Compound 179] | 25 to 75 |
| COc1cc(-c2ccc(-c3ccc(C4CN(Cc5cn(C(C)C)cn5)C4)nn3)c(O)c2)cc2cn(C)nc12 [Compound 191] | 25 to 75 |
| CCOC1CC(N2CC(c3ccc(-c4ccc(-c5cc(OC)c6nn(C)cc6c5)cc4O)nn3)C2)C1 (centres unmarked) [Compound 163] | 25 to 75 |
| Cc1cn2cc(-c3ccc(-c4ccc(C5CN(CC6CCCOC6)C5)nn4)c(O)c3)cc(F)c2n1 (centres unmarked) [Compound 88] | 25 to 75 |
| COc1cc(-c2ccc(-c3ccc(C4CN(CC5CCC6CC6C5)C4)nn3)c(O)c2)cc2cn(C)nc12 (centres unmarked) [Compound 186] | 25 to 75 |
| Cc1cn2cc(-c3ccc(-c4ccc(C5CN(C(C)Cc6cnn(C)c6)C5)nn4)c(O)c3)cc(F)c2n1 (centres unmarked) [Compound 106] | > 750 |
| COc1cc(-c2ccc(-c3ccc(C4CN(C(C)C5CCC5)C4)nn3)c(O)c2)cc2cn(C)nc12 (centres unmarked) [Compound 157] | > 750 |
| Cc1cn2cc(-c3ccc(-c4ccc(C5CN(C(C)C6CCCO6)C5)nn4)c(O)c3)cc(F)c2n1 (centres unmarked) [Compound 95] | > 750 |
| COc1cc(-c2ccc(-c3ccc(C4CN(C(C)C5CCCCO5)C4)nn3)c(O)c2)cc2cn(C)nc12 (centres unmarked) [Compound 187] | 25 to 75 |
| COc1cc(-c2ccc(-c3ccc(C4CN(C5CCC(C#N)CC5)C4)nn3)c(O)c2)cc2cn(C)nc12 (centres unmarked) [Compound 164] | > 750 |
| COc1cc(-c2ccc(-c3ccc(C4CN(C5CCOC(C)C5)C4)nn3)c(O)c2)cc2cn(C)nc12 (centres unmarked) [Compound 145] | 25 to 75 |
| COc1cc(-c2ccc(-c3ccc(C4CN(CC5CC=CCC5)C4)nn3)c(O)c2)cc2cn(C)nc12 (centres unmarked) [Compound 131] | > 750 |
| COc1cc(-c2ccc(-c3ccc(C4CN(CC5CCCOC5)C4)nn3)c(O)c2)cc2cn(C)nc12 (centres unmarked) [Compound 147] | > 750 |

same assay, conditions: Homo sapiens; HTT mini-gene firefly luciferase reporter transiently transfected into HEK293 cells

| EC50 [nM] | SMILES |
| --- | --- |
| 50 to 500 | CCN1CC(c2ccc(-c3ccc(-c4cc(C)c5nn(C)cc5c4)cc3O)nn2)C1 [Compound 34, 5-(2,7-dimethyl-2H-indazol-5-yl)-2-[6-(1-ethylazetidin-3-yl)pyridazin-3-yl]phenol] |
| 50 to 500 | CCN1CC(c2ccc(-c3ccc(-c4cc(OC)c5nn(C)cc5c4)cc3O)nn2)C1 [Compound 48, 2-[6-(1-ethylazetidin-3-yl)pyridazin-3-yl]-5-(7-methoxy-2-methyl-2H-indazol-5-yl)phenol] |
| 500 to 1000 | Cc1cn2cc(-c3ccc(-c4ccc(C5CNC5)nn4)c(O)c3)ncc2n1 [Compound 33, 2-[6-(azetidin-3-yl)pyridazin-3-yl]-5-{2-methylimidazo[1,2-a]pyrazin-6-yl}phenol] |
| 50 to 500 | COc1nc(-c2ccc(-c3ccc(C4CN(C(C)C)C4)nn3)c(O)c2)cc2cn(C)nc12 [Compound 57, 5-{7-methoxy-2-methyl-2H-pyrazolo[3,4-c]pyridin-5-yl}-2-{6-[1-(propan-2-yl)azetidin-3-yl]pyridazin-3-yl}phenol] |
| ≥ 1000 | CCN1CC(c2ccc(-c3ccc(-c4ccn5nc(C)cc5c4)cc3O)nn2)C1 [Compound 25, 2-[6-(1-ethylazetidin-3-yl)pyridazin-3-yl]-5-{2-methylpyrazolo[1,5-a]pyridin-5-yl}phenol] |
| ≥ 1000 | CCOc1cc(-c2ccc(-c3ccc(C4CN(C)C4)nn3)c(O)c2)cc2cn(C)nc12 [Compound 55, 5-(7-ethoxy-2-methyl-2H-indazol-5-yl)-2-[6-(1-methylazetidin-3-yl)pyridazin-3-yl]phenol] |
| ≥ 1000 | Cc1cn2nc(-c3ccc(-c4ccc(C5CN(C)C5)nn4)c(O)c3)cc(C)c2n1 [Compound 30, 5-{2,8-dimethylimidazo[1,2-b]pyridazin-6-yl}-2-[6-(1-methylazetidin-3-yl)pyridazin-3-yl]phenol] |
| 500 to 1000 | CCOc1cc(-c2ccc(-c3ccc(C4CN(CC)C4)nn3)c(O)c2)cc2cn(C)nc12 [Compound 56, 5-(7-ethoxy-2-methyl-2H-indazol-5-yl)-2-[6-(1-ethylazetidin-3-yl)pyridazin-3-yl]phenol] |
| ≥ 1000 | CCN1CC(c2ccc(-c3ccc(-c4cc(C)n5nc(C)cc5c4)cc3O)nn2)C1 [Compound 41, 5-{2,7-dimethylpyrazolo[1,5-a]pyridin-5-yl}-2-[6-(1-ethylazetidin-3-yl)pyridazin-3-yl]phenol] |
| 50 to 500 | CCN1CC(c2ccc(-c3ccc(-c4cc5cn(C)nc5c(OC)n4)cc3O)nn2)C1 [Compound 52, 2-[6-(1-ethylazetidin-3-yl)pyridazin-3-yl]-5-{7-methoxy-2-methyl-2H-pyrazolo[3,4-c]pyridin-5-yl}phenol] |
| 50 to 500 | Cc1cc(-c2ccc(-c3ccc(C4CN(C)C4)nn3)c(O)c2)cc2cn(C)nc12 [Compound 27, 5-(2,7-dimethyl-2H-indazol-5-yl)-2-[6-(1-methylazetidin-3-yl)pyridazin-3-yl]phenol] |
| 500 to 1000 | Cc1cn2nc(-c3ccc(-c4ccc(C5CN(C6CCOCC6)C5)nn4)c(O)c3)cc(C)c2n1 [Compound 64, 5-(2,8-dimethylimidazo[1,2-b]pyridazin-6-yl)-2-(6-(1-(tetrahydro-2H-pyran-4-yl)azetidin-3-yl)pyridazin-3-yl)phenol hydrochloride] |
